In publication PMC5520492, “Inhibition of DNA2 nuclease as a therapeutic strategy targeting replication stress in cancer cells” (Oncogenesis, 2017) one finds IC50 data, which are given here for two compounds.

For one test, the target named is T1, yDna2 (Saccharomyces cerevisiae, UniProt P38859).
T1 construct: made in house
Briefly: High-throughput fluorescence nuclease assay with yDna2 (triply labeled (dT)30 ssDNA). To be noted: yeast Dna2 0.09 nM; substrate 0.1 μM; Figure 3c; read-out: IC50 (yeast Dna2), dose-response in vitro. Format: biochemical, yeast. Here is the method:
The screen entailed the use of oligonucleotide (dT)30 having a reporter fluorescent moiety, 6-FAM on the 5′ end, and the dark quenching group, Iowa Black FQ, on the 3′ end. In addition, a second dark quencher ZEN was placed between the 9th and 10th base (Figure 2a). The fluorescence emitted by 6-FAM is quenched by FRET, but it increases when DNA is degraded by Dna2. […] The inhibitory activity of the compounds was determined as a reduction in fluorescent signal compared with the dimethylsulfoxide (DMSO) only control. […] We screened ~50 000 chemical compounds from six different libraries (Supplementary Table S1) to identify chemical inhibitors of the Dna2 nuclease activity. […] The DNA2 nuclease domain is well conserved among eukaryotes, and therefore we reasoned that inhibitors of yDna2 will likely also work with the human counterpart.
Initial screen, it was performed with yDna2.[22] Then, the top candidate compounds were tested on hDNA2. Identical reaction conditions were used for assaying the nuclease activity of yDna2 and hDNA2. […] The reaction buffer was 20 mM HEPES/NaOH, pH 7.5, 60 mM KCl, 1 mM DTT, 100 μg/ml bovine serum albumin and 0.05% Triton X-100. The nuclease assay was initiated by adding MgCl2 (3 mM final concentration). T5 nuclease was assayed in the buffer (50 mM potassium acetate, pH 7.9, 20 mM Tris-acetate, 10 mM magnesium acetate and 1 mM DTT) provided by the vendor (NEB, Ipswich, MA, USA). The concentration of the fluorogenic substrate was 0.1 μM. The optimal amount of yDna2, hDNA2 and T5 nuclease was determined by utilizing the Kaleidagraph software (Reading, PA, USA) to fit the data according to Michaelis Menton Kinetics (V=V0+Vmax*x/(Km+x)). […] The Z’ value was calculated as previously described.[50] Cell proliferation was determined using 4,6-diamidino-2-phenylindole staining followed by high-throughput microscopy in a 384-well plate setup. In brief, cells were fixed with formaldehyde, washed and stained with 4,6-diamidino-2-phenylindole and the number of nuclei in each well counted by automated microscopy. The data were analyzed as described.[51]

The next test deals with T2, hDNA2 (Homo sapiens, UniProt P51530).
T2 construct: made in house
T2 sequence (P51530 1-1060): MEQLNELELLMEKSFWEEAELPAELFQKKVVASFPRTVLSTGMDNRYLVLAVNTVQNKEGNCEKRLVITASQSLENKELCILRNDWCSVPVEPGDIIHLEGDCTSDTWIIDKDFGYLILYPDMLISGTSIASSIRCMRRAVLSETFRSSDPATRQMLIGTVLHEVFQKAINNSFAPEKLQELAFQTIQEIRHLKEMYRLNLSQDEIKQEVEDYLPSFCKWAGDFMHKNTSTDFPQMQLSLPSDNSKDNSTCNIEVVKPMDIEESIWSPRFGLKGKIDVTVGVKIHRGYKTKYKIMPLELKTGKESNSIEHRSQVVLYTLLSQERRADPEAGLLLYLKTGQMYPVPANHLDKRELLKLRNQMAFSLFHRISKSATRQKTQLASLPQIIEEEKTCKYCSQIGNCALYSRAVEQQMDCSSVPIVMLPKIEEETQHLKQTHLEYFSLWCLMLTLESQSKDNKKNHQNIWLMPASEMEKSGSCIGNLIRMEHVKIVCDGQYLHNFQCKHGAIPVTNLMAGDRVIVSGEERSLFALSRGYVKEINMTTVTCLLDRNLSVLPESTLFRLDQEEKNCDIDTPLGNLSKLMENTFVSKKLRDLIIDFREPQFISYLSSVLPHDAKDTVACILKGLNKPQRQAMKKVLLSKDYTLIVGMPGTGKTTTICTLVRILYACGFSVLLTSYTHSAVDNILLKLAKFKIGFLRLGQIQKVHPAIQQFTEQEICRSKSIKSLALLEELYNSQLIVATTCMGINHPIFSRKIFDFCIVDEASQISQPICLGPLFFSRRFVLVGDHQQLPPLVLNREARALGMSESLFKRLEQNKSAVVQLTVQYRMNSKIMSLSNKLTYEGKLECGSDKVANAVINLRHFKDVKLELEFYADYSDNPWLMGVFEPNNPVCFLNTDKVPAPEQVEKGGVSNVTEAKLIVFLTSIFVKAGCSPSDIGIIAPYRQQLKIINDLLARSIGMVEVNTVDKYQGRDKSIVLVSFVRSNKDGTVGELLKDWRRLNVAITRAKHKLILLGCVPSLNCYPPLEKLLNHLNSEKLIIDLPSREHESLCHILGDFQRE
Briefly: Fluorescence nuclease assay with hDNA2 (triply labeled ssDNA). The settings on record: human DNA2 10 nM; substrate 0.1 μM; Figure 3c; read-out: IC50 (human DNA2), dose-response in vitro. Format: biochemical. The procedure: Figure 3 Validation of the top two inhibitors identified from the high-throughput screen. […] (b, c) Dose-response curves for indicated compounds, cell based (U2OS cell line) (b) and in vitro (c). The IC50 value and the protein concentration used are indicated. Triple labeled substrate (0.1 μM) as in Figure 2a was used. The concentration range of inhibitors was 0.003–666.67 μM. […] The asterisks denote the radiolabel. Plotted are the average data from three independent experiments and the error bars represent 1 s.d. […]
In addition, a second dark quencher ZEN (N,N-diethyl-4-(4-nitronaphthalen-1-ylazo)-phenylamine, absorption max.=532 nm) is placed between 9th and 10th base (Figure 2a). […] The optimal amount of yDna2, hDNA2 and T5 nuclease was determined by utilizing the Kaleidagraph software (Reading, PA, USA) to fit the data according to Michaelis Menton Kinetics (V=V0+Vmax*x/(Km+x)). […] The Z’ value was calculated as previously described.[50] Cell proliferation was determined using 4,6-diamidino-2-phenylindole staining followed by high-throughput microscopy in a 384-well plate setup. In brief, cells were fixed with formaldehyde, washed and stained with 4,6-diamidino-2-phenylindole and the number of nuclei in each well counted by automated microscopy. The data were analyzed as described.[51]

T1 sequence (P38859 whole entry): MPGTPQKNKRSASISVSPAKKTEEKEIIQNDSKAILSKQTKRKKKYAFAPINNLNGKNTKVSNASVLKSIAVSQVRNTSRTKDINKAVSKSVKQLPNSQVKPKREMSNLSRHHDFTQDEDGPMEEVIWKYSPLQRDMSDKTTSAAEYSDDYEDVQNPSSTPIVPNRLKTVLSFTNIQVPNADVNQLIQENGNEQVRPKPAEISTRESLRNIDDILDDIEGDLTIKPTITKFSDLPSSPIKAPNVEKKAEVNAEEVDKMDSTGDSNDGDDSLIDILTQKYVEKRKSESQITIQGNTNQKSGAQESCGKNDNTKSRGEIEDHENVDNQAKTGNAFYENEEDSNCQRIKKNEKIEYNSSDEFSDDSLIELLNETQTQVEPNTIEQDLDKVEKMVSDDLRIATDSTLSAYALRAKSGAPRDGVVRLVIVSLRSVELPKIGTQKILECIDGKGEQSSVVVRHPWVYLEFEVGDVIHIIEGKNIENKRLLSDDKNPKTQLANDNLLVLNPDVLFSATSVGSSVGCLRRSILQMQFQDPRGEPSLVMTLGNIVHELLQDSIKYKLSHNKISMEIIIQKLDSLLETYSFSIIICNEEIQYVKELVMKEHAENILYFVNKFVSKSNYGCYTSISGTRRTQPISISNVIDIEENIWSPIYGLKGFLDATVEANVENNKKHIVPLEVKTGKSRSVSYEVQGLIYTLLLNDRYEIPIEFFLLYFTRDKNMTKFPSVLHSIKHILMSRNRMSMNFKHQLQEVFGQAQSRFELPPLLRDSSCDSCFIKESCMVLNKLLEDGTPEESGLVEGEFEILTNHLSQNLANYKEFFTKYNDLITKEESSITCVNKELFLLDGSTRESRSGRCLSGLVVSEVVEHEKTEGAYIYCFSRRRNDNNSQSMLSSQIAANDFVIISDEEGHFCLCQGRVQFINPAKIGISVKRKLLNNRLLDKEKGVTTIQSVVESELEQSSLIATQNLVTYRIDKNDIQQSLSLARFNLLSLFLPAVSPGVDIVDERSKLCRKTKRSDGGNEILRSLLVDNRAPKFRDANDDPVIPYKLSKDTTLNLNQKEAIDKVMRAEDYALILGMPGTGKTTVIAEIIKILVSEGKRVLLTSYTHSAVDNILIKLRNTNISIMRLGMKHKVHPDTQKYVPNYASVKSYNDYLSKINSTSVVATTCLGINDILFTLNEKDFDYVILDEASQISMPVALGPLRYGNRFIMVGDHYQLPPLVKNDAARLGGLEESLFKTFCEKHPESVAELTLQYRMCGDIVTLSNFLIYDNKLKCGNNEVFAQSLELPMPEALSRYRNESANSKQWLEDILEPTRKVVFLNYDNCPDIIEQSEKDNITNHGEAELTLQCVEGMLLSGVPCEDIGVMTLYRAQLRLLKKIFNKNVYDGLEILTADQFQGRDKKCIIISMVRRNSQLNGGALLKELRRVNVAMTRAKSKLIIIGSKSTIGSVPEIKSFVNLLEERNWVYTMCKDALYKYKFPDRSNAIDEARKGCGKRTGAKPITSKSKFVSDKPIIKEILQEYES

As to `O=C1C(=O)c2cc([N+](=O)[O-])ccc2-c2ccccc21` [NSC-5195242, 2-nitrophenanthrene-9,10-dione], the IC50 at yDna2 is 3900 nM; at hDNA2, 3100 nM.
The corresponding values for `NC1=C(Br)C(=O)c2ncccc2C1=O` [NSC-105808, 6-amino-7-bromoquinoline-5,8-dione] are 2000 nM and 1490 nM.
